Data as given in patent publication US9820990B2, “Methods of treating disorders associated with protein aggregation” (University of Pittsburgh—Of the Commonwealth System of …, priority 2009, dated 2017).
“Also recorded” adds a separate entry of the source. Where a name gives a salt, the structure may show the parent alone. Read-outs that look alike come from different tables or passages of the source.

Experiments:
C. elegans = conditions: 0-100 mM, 4 hours, SYTOX Green uptake
Method: Animals were washed 5 times with M9 media and stained with 2 μM SYTOX™ Green (Invitrogen) for 5 minutes at room temperature (84). Approximately 50 animals/well were dispensed into an optical bottom black walled 96 well plate (Nunc Thermo Fisher Scientific, Rochester, N.Y., USA). Wells were imaged using the ArrayScan VTI over the entire area of the well in brightfield, red (TRITC) and green (GFP) channels at 50× magnification. The total number of animals and the number of dead bodies were determined by counting red and green spots, respectively. Data from SpotDetector algorithm were confirmed by manual counting of the live and dead animals. Percent dead=(the number of green objects detected/total number of animals)×100.
To determine whether the system could discriminate dead from live intestinal cells, we scanned and analyzed young adult animals exposed to different concentrations of NaAz in the presence SYTOX® Green.
sGFP::ATZ [1] = test: LOPAC library high-content primary screen for sGFP::ATZ accumulation in transgenic animals; type: in vivo, C. elegans; conditions: for Rank-score: 24 h
sGFP::ATZ [2] = test: Hit compound characterization: dose-response in the sGFP::ATZ HCS assay; type: in vivo, C. elegans; set-up: key to dose-dependent response: c: Compound demonstrated a dose-dependent response.; Compound failed to demonstrate a dose-dependent response; conditions: for degradation of aggregated ATZ protein: Caenorhabditis elegans model system; for GFP+ inclusions in ATZ worms: at 10 μM; for effect on sGFP::ATZ accumulation: dose-response, 0-100 μM; for dose-dependent response: retest at 0-100 μM, 24 or 48 hours
Method: Imaging of animals using the ArrayScan VTI: Prior to imaging, worms were anesthetized by adding 30 μl of 0.02 M NaN3 in PBS to each well. Plates were resealed, inverted twice, and incubated for 5 minutes at room temperature. Images were acquired with the ArrayScan VTI HCS Reader fitted with a 2.5× objective and a 0.63× coupler using a 2-channel (TRITC and GFP) assay. Real-time analysis was performed using the SpotDetector BioApplication optimized to quantify fluorescent protein expression in C. elegans. Image acquisition and analysis of a 384-well plate was completed in <45 minutes. The total number of animals in the well was determined by counting the number of red heads (Pmyo-2mRFP) in the TRITC channel. Total spot area or total spot intensity was determined by quantifying the GFP-positive spots in the GFP channel. Total spot area or total spot intensity per animal was determined by dividing the values from the GFP channel by that from the TRITC channel.
Hit compound characterization: Compounds that were identified as potential hits were purchased (if available) and retested for verification. […] Compounds that produced a response in a dose-dependent manner were further tested for a time-dependent response. Compound dose-response curves were performed by dispensing 15 μl of a 4× stock solution into 384-well plates containing 15 μl of assay medium (see above). Thirty-five animals were sorted into each well bringing the volume to ˜60 μl. The final compound concentrations in each well varied from 0-100 μM. Assay plates were incubated in a 22° C. incubator for 24 or 48 hours. Each compound was tested in quadruplicate in at least 2 independent experiments.
Statistical evaluation: Statistical evaluation of data was performed using Prism® (Graphpad Software). The significance of actual and predicted data in FIGS. 12, 14 and 15 was determined using a linear regression analysis and comparing the slope and goodness-of-fit (r2) values. Statistical significance of the spot count, spot area and spot intensity values between N2 (wild-type) and various transgenic lines in FIG. 13 and dose-response in FIG. 17 was determined using an unpaired, one-tailed, Student's t-test.
Compound screen: To test the HCS protocol, a pilot drug screen was performed using the library of pharmacologically active compounds (LOPAC1280™ 1280 compounds). Tight gating parameters for total fluorescence were used to sort 35 young adult Pnhx2sGFP::ATZ animals into wells of 384-well plates containing […] of a LOPAC compound and 0.5% DMSO. Pnhx2sGFP::ATZ animals incubated with 0.5% DMSO served as untreated controls and were placed in the first-two and last-two columns of each plate. In a representative experiment, plate 1 of the LOPAC library was set-up for screening on day 1, and 3 other plates were set-up on the next day. After 24 incubation at 25° C., animals were immobilized by the addition of NaAz and placed in the ArrayScan VTI for automated imaging. To examine for systematic errors, the raw data (total spot area/animal) were depicted as a plate-well scatter plot (FIG. 17A). […] This difference reflects a wider sort-window used to collect animals on day 1 in comparison to that used on day 2. As the average values of the negative controls and that of the sample wells were similar, we combined the control and samples wells for normalization and to identify potential hits using the z-score (FIG. 17B). The ArrayScan VTI reads microtiter plates by rows, alternating from left-to-right, and then right-to-left. For some assays, we noted that the control fluorescence values would drift upwards slightly in rows towards the bottom of the plate. This drift appeared to correlate with an increase in chamber temperature during the scanning period and was minimized by cooling the chamber with a fan or shortening the read times by using 2.5× objective with a 0.6 coupler. Nonetheless, intra-plate variation was controlled for by presenting the data as a B-score (FIG. 17C). […]

mCherry::LGG-1 = test: Induction of autophagy in transgenic animals expressing Pnhx-2mCherry::lgg-1; type: in vivo, C. elegans; conditions: compared with well-fed animals treated with DMSO (diffuse)
Source text: FIG. 18A-E. Induction of autophagy by hit compounds. Images of transgenic animals expressing Pnhx-2mCherry:lgg-1 treated with various compounds are shown. Images were acquired using a Nikon instruments TiEclipse widefield light microscope fitted with a 20× Plan Apochromat objective. Images were then deconvolved using Volocity (Perkin Elmer, v 5.3.2). Deconvolved z planes were then merged to a single plane. Well-fed animals treated with DMSO (A) show a diffuse mCherry expression throughout the intestine. […] Starved (E) animals are included as a positive control for autophagy. Scale bar, 50 μm.
Macroautophagy is a cellular process in which a double membrane envelops cytosolic components or organelles (autophagosome) and delivers this material to a lysosome (autophagolysosome) for degradation and recycling (reviewed in 79). LGG-1/LC3/Atg8 is a diffuse cytosolic protein that participates in autophagosome formation and becomes inserted into the autophagosome membrane (80). Upon autophagosome formation, LGG-1 fused to mCherry changes its cytoplasmic distribution pattern from diffuse (lower fluorescence intensity) to punctate (higher fluorescence intensity) (80). To determine whether the imaging system could follow this process, a strain expressing a Pnhx-2mCherry::lgg-1 transgene was examined after starvation, a potent inducer of intestinal autophagosome formation (81). In well-fed animals, the diffuse cytoplasmic fluorescence in the intestinal cells was well above that of the N2 background (FIGS. 13K-13L, 13O-13Q). To detect mCherry::LGG-1 puncta, the diffuse fluorescence intensity of the well-fed animals was used to calibrate a threshold from which the SpotDetector BioApplication could detect any high-intensity spots. Although basal autophagy in the well-fed animals yielded a few spots (FIG. 13O), the large number of distinct puncta in the starved animals (FIGS. 13M, 13N, 13O-Q) indicated a marked increase in autophagy that was detected best by a statistically significant increase in spot count or total spot intensity per animal (FIGS. 13O and 13Q, respectively). […]

ATZ in HTO/Z cells = test: HTO/Z cells, Western blot analysis for AT; type: cell-based, human; conditions: for ATZ levels in the cell line: HTO/Z mammalian cell line model of AT deficiency
Method: The cells were incubated for 48 hrs with fluphenazine in several different concentrations and then subjected to Western blot analysis for AT. […] The effect is evident at doses of 1-10 μM. […] This is different from CBZ which appears to affect autophagic as well as proteasomal degradation.

ATZ = conditions: mouse model of AT deficiency; cited from earlier work

Structure (SMILES) | degradation of aggregated ATZ protein (sGFP::ATZ [2]) | GFP+ inclusions in ATZ worms (sGFP::ATZ [2]) | effect on sGFP::ATZ accumulation (sGFP::ATZ [2]) | dose-dependent response (sGFP::ATZ [2]) | mCherry::LGG-1 distribution pattern (autophagic activity) (mCherry::LGG-1) | ATZ levels in the cell line (ATZ in HTO/Z cells) | also measured
[N-]=[N+]=[N-] [sodium azide] |  |  |  |  |  |  | number of dead animals (C. elegans): dose dependent increase
OCCN1CCN(CCCN2c3ccccc3Sc3ccc(C(F)(F)F)cc32)CC1 [fluphenazine dihydrochloride, 4-[3-[2-(Trifluoromethyl)phenothiazin-10-yl]propyl]-1-piperazineethanol] | able to promote degradation of aggregated ATZ protein | almost complete elimination of the inclusions | dose-dependent decrease in sGFP::ATZ accumulation; also recorded: dose-dependant decrease in sGFP::ATZ accumulation; also recorded: dose-dependent effect; also recorded: decreased | fluphenazine dihydrochloride^c | markedly punctate distribution pattern indicative of increased autophagic activity | effective in reducing ATZ levels | Overall rank-order (sGFP::ATZ [1]): 23; Rank-score (sGFP::ATZ [1]; 50 µM): 81.0; doses at which the decrease in insoluble ATZ is evident (ATZ in HTO/Z cells; HTO/Z cells, 48 hrs): 1 to 10 µM; levels of the control GAPDH (ATZ in HTO/Z cells; HTO/Z cells, 48 hrs): no significant change; soluble ATZ (ATZ in HTO/Z cells; HTO/Z cells, 48 hrs): increase; insoluble ATZ levels (ATZ in HTO/Z cells; HTO/Z cells, 48 hrs, several concentrations): dose-dependent decrease; ATZ levels in the cell line (ATZ in HTO/Z cells; listed as fluphenzine hydrochloride): decreased ATZ
O=c1[nH]c2ccccc2n1C1CCN(CCCC(c2ccc(F)cc2)c2ccc(F)cc2)CC1 [pimozide, 1-[1-[4,4-bis(4-fluorophenyl)butyl]-4-piperidyl]-1,3-dihydrobenzoimidazol-2-one] | able to promote degradation of aggregated ATZ protein | almost complete elimination of the inclusions | dose-dependent decrease in sGFP::ATZ accumulation; also recorded: dose-dependant decrease in sGFP::ATZ accumulation; also recorded: dose-dependent effect; also recorded: decreased | pimozide^c | markedly punctate distribution pattern indicative of increased autophagic activity | effective in reducing ATZ levels; also recorded: decreased ATZ | Overall rank-order (sGFP::ATZ [1]; among compounds that decreased ATZ accumulation, based on relative rank-scores): 33; Rank-score (sGFP::ATZ [1]; average of compound rankings by ascending B-score from two independent screens, 50 μM, <110 decreased, >1225 increased sGFP::ATZ inclusions): 107.5
NC(=O)N1c2ccccc2C=Cc2ccccc21 [carbamazepine] |  |  |  |  |  |  | amount of ATZ accumulated in the liver (ATZ): decrease
